Data published in patent US20080319000A1, “Use of 3,1IB-Cis-Dihydrotetrabenazine for the Treatment of Symptoms of Huntingtons Disease” (CAMBRIDGE LABORATORIES (IRELAND) LIMITED, priority 2005, published 2008).

Tests used:
[1] = system: B6CBA-Tg(HDexon1)62Gpb/1J transgenic (R6/2) mice; assay: Locomotor activity test in transgenic mice model of Huntington's disease; format: in vivo; conditions: average recorded results, 5 mg/kg i.p.
Protocol: B6CBA-Tg(HDexon1)62Gpb/1J transgenic (R6/2) mice are transgenic for the 5-end of the human HD gene carrying (CAG) 115-(CAG) 150 repeat expansions. […] These symptoms appear between 6 and 8 weeks of age. […] The mice had access to commercial mouse chow (mouse/rate breeding, ref. 9341 Provimi Kliba, Switzerland) and tap water. […] The mice were placed in a transparent plastic box of floor dimensions 30×30 cm in a room with low light intensity (maximum 20 lux). Locomotor activity was determined during a 10 minute period using a video image analyzer (Videotrack, View Point, Lyon, France). The number, distance and average speed of ambulatory movements were measured. The mice were returned to their home cages after testing. Group 1: hemizygote Transgenic B6CBA-Tg(HDexon 1)62Gpb/1J mice treated with vehicle i.p. once a day for 4 days (from day 0 to day 3) Group 2: hemizygote Transgenic B6CBA-Tg(HDexon 1)62Gpb/1J mice treated with 5 mg/kg i.p. of test item once a day for 4 days (from day 0 to day 3) […] • Test item administration • Simplified Irwin test, 40 min after administration • Locomotor activity test, immediately after the simplified Irwin test Simplified Irwin scores were analysed using non-parametric Mann-Whitney's U test. Locomotor activity data were analysed using Dunnett's t-test. Rotarod scores were analysed using the non-parametric Mann-Whitney's U-test. Statistical analyses were performed using the software Statview SE^+graphics software, Brain Power.

[2] = system: B6CBA-Tg(HDexon1)62Gpb/1J transgenic (R6/2) mice; assay: Rotarod test in transgenic mice model of Huntington's disease; format: in vivo; conditions: 5 mg/kg i.p. Day 0 to Day 3
Protocol: B6CBA-Tg(HDexon1)62Gpb/1J transgenic (R6/2) mice are transgenic for the 5-end of the human HD gene carrying (CAG) 115-(CAG) 150 repeat expansions. […] These symptoms appear between 6 and 8 weeks of age. Female B6CBa-Tg(HDexon1)62Gpb/1J transgenic mice (Jackson Laboratory, USA) were housed 5 per cage in an enriched environment under a light-dark cycle of 12 h-12 h (light on at 7.00 am, off at 7.00 pm) at a room temperature of 21±2° C., with 50±15% humidity. The mice had access to commercial mouse chow (mouse/rate breeding, ref. 9341 Provimi Kliba, Switzerland) and tap water. […] Two consecutive days before the first administration, animals were trained to use the rotarod: they were placed on an accelerating rotarod (Ugo Basile, Italy) for a maximum time of 450 seconds. They went through 2 training sessions starting with 4 rpm for 300 seconds, then staying at 40 rpm for 150 seconds. The two training sessions were given at 1 hour intervals. On the days of testing, each animal was subjected to one trial under the conditions described above. Each trial was terminated when the mouse fell or when it had stayed on the rotarod for 450 seconds. The mice were returned to their home cages after testing. Group 1: hemizygote Transgenic B6CBA-Tg(HDexon 1)62Gpb/1J mice treated with vehicle i.p. once a day for 4 days (from day 0 to day 3) Group 2: hemizygote Transgenic B6CBA-Tg(HDexon 1)62Gpb/1J mice treated with 5 mg/kg i.p. of test item once a day for 4 days (from day 0 to day 3) […] • Test item administration • Simplified Irwin test, 40 minutes after administration • Rotarod test, immediately after the simplified Irwin test • Test item administration • Simplified Irwin test, 40 min after administration • Rotarod test, immediately after simplified #Irwin test Simplified Irwin scores were analysed using non-parametric Mann-Whitney's U test. Locomotor activity data were analysed using Dunnett's t-test. Rotarod scores were analysed using the non-parametric Mann-Whitney's U-test. Statistical analyses were performed using the software Statview SE^+graphics software, Brain Power.

[3] = biological target: T1, catechol O-methyl transferase (COMT) (Homo sapiens, UniProt P21964); assay: COMT inhibition; format: biochemical
T1 sequence (P21964 1-271): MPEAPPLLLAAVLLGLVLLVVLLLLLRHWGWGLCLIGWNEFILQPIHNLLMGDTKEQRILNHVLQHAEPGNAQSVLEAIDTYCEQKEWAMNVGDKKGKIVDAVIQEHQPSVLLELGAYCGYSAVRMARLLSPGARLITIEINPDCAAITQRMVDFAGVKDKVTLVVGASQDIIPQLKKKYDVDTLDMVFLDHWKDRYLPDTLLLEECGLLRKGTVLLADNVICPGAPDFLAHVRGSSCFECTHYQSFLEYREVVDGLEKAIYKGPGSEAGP

[4] = biological target: T2, monoamine oxidase isoform A (Homo sapiens, UniProt P21397); assay: Monoamine oxidase A inhibition; format: biochemical
T2 sequence (P21397 1-527): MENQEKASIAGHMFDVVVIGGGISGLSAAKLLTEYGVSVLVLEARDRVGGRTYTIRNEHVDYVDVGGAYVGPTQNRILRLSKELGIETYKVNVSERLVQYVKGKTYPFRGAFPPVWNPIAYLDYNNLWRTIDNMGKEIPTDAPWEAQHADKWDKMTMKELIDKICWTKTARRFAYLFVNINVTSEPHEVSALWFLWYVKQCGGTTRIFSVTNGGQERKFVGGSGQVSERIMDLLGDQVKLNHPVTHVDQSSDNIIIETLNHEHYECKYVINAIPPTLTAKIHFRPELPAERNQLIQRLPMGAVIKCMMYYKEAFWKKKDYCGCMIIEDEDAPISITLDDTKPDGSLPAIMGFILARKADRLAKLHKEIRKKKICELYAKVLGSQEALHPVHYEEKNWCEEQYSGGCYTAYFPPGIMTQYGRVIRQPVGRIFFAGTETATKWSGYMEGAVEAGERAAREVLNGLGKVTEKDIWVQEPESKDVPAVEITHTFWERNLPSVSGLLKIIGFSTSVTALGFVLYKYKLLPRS

[5] = biological target: 5-hydroxytryptamine isoform 1b (Homo sapiens, UniProt P28222); assay: 5-hydroxytryptamine 1b inhibition; format: binding
[6] = system: dopamine receptor; assay: Dopamine receptor binding
[7] = DAY 0, 40 mn after administration
[8] = DAY 2, 40 mn after administration

Sequence of 5-hydroxytryptamine isoform 1b (P28222 whole entry, canonical isoform): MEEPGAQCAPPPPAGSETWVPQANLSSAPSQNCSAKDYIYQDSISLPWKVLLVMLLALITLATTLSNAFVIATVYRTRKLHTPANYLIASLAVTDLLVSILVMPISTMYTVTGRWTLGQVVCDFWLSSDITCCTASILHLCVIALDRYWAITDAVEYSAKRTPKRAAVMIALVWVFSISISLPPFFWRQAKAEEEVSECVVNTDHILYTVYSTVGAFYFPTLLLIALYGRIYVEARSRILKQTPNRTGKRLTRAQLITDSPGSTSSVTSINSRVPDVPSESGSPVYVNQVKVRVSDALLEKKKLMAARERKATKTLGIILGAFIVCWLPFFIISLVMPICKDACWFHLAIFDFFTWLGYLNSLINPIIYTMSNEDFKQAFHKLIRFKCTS

COc1cc2c(cc1OC)[C@H]1C[C@H](O)[C@@H](CC(C)C)CN1CC2 (single isomer, unassigned) [Isomer B]
Inactivity Duration [1, 7]: 184 ± 31 s | Large movements Duration [1, 7]: 99 ± 13 s | Large movements Occurence (number) [1, 7]: 280 ± 41 number | Large movements Speed [1, 7]: 13.0 ± 0.5 cm/s | Inactivity Duration ([1]; DAY 0, before administration): 149 ± 27 s | Large movements Duration ([1]; DAY 0, before administration): 128 ± 16 s | Large movements Occurence (number) ([1]; DAY 0, before administration): 309 ± 37 number | Large movements Speed ([1]; DAY 0, before administration): 13.2 ± 0.5 cm/s | Inactivity Duration [1, 8]: 134 ± 18 s | Large movements Duration [1, 8]: 123 ± 14 s | Large movements Occurence (number) [1, 8]: 322 ± 40 number | Large movements Speed [1, 8]: 13.9 ± 0.7 cm/s | Inactivity Duration ([1]; DAY 24): 67 ± 42 s | Large movements Duration ([1]; DAY 24): 148 ± 34 s | Large movements Occurence (number) ([1]; DAY 24): 818 ± 168 number | Large movements Speed ([1]; DAY 24): 11.2 ± 0.9 cm/s | Measured latencies to fall from Rotarod ([2]; Day 0, prior to 1st administration): 68.4 ± 17.7 s | Measured latencies to fall from Rotarod ([2]; Day 1): 91.4 ± 18.1 s | Measured latencies to fall from Rotarod ([2]; Day 3): 59.4 ± 11.2 s | Measured latencies to fall from Rotarod ([2]; Day 9): 29.0 ± 12.1 s | Measured latencies to fall from Rotarod ([2]; Day 17): 30.0 ± 11.0 s | Measured latencies to fall from Rotarod ([2]; Day 21): 22.1 ± 7.3 s | Measured latencies to fall from Rotarod ([2]; Day 24): 14.8 ± 4.3 s | Measured latencies to fall from Rotarod ([2]; Day 27): 15.8 ± 5.2 s | Measured latencies to fall from Rotarod ([2]; Day 31): 7.8 ± 2.4 s | inhibitory activity against catechol O-methyl transferase (COMT) [3]: no inhibitory activity | inhibitory activity against monoamine oxidase isoform A [4]: no inhibitory activity | inhibitory activity against 5-hydroxytryptamine isoform 1b [5]: no inhibitory activity | dopamine receptor binding activity [6]: only weak or non-existent
